Experimental data reported in US11554171B2, “Compounds and methods for the targeted degradation of bromodomain-containing proteins” (Arvinas Operations, Inc., priority 2015, dated 2023).

Tested on: c-myc in 22RV-1 cells
Experiment: Human c-myc ELISA assay
Assay type: cell-based
Conditions: Homo sapiens; for Emax: 22Rv1, 18 h, read-out: Degradation of BRD4: Maximum inhibition (%) c-Myc ELISA in 22RV1 cells; for DC50: 22Rv1, read-out: Degradation of BRD4: DC50 (uM) c-Myc ELISA in 22RV1 cells
Method in brief: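 22RV-1 cells treated 18 h with 8-point 1:3 compound dilutions (final top 300 nM or 1 μM, 0.1% DMSO). Cells lysed in RIPA buffer with protease/phosphatase inhibitors, and c-myc protein in cleared lysate quantified by ELISA against a standard curve. DC50 reported for c-myc suppression.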

| DC50 | SMILES | Emax |
| --- | --- | --- |
| 0.01 to 0.1 µM | Cc1ncsc1-c1ccc(CNC(=O)[C@@H]2C[C@@H](O)CN2C(=O)[C@@H](NC(=O)COCCCOCCCOc2ccc3c(c2)c2c(C(N)=O)cc(-c4c(C)noc4C)cc2n3Cc2ccccc2)C(C)(C)C)cc1 [Example 133, 9-benzyl-2-(dimethyl-1,2-oxazol-4-yl)-6-{3-[3-({[(2S)-1-[(2S,4R)-4-hydroxy-2-({[4-(4-methyl-1,3-thiazol-5-yl)phenyl]methyl}carbamoyl)pyrrolidin-1-yl]-3,3-dimethyl-1-oxobutan-2-yl]carbamoyl}methoxy)propoxy]propoxy}-9H-carbazole-4-carboxamide] | 98% |
| 0.01 to 0.1 µM | CC1=NN=C2C1c1sc(C)c(C)c1C(c1ccc(Cl)cc1)=N[C@H]2CC(=O)NCCOCCOCCC(=O)N[C@H](C(=O)N1C[C@H](O)CC1C(=O)N[C@@H](C)c1ccc(-c2scnc2C)cc1)C(C)(C)C (stereo partly drawn) [Example 136] | 96% |
| 0.1 to 1 µM | Cc1ncsc1-c1ccc(CNC(=O)[C@@H]2C[C@@H](O)CN2C(=O)[C@@H](NC(=O)COCCO[C@H]2C[C@H](NC(=O)C[C@@H]3N=C(c4ccc(Cl)cc4)c4c(sc(C)c4C)-n4c(C)nnc43)C2)C(C)(C)C)cc1 [Example 137] | 86.9% |
| 0.1 to 1 µM | Cc1ncsc1-c1ccc(CNC(=O)[C@@H]2C[C@@H](O)CN2C(=O)[C@@H](NC(=O)COCCO[C@H]2C[C@@H](NC(=O)C[C@@H]3N=C(c4ccc(Cl)cc4)c4c(sc(C)c4C)-n4c(C)nnc43)C2)C(C)(C)C)cc1 [Example 138] | 89.4% |
| < 0.01 µM | Cc1ncsc1-c1ccc(CNC(=O)[C@@H]2C[C@@H](O)CN2C(=O)[C@@H](NC(=O)CCc2ccc(OCCNC(=O)C[C@@H]3N=C(c4ccc(Cl)cc4)c4c(sc(C)c4C)-n4c(C)nnc43)nc2)C(C)(C)C)cc1 [Example 139, (2S,4R)-1-[(2S)-2-{3-[6-(2-{2-[(9S)-7-(4-chlorophenyl)-4,5,13-trimethyl-3-thia-1,8,11,12-tetraazatricyclo[8.3.0.0^2,^6]trideca-2(6),4,7,10,12-pentaen-n-9-yl]acetamido}ethoxy)pyridin-3-yl]propanamido}-3,3-dimethylbutanoyl]-4-hydroxy-N-{[4-(4-methyl-1,3-thiazol-5-yl)phenyl]methyl}pyrrolidine-2-carboxamide] | 98% |
| < 0.01 µM | Cc1ncsc1-c1ccc(CNC(=O)[C@@H]2C[C@@H](O)CN2C(=O)[C@@H](NC(=O)COc2ccc(O[C@H]3C[C@H](NC(=O)C[C@@H]4N=C(c5ccc(Cl)cc5)c5c(sc(C)c5C)-n5c(C)nnc54)C3)nc2)C(C)(C)C)cc1 [Example 140] | 98% |
| < 0.01 µM | Cc1ncsc1-c1ccc(CNC(=O)[C@@H]2C[C@@H](O)CN2C(=O)[C@@H](NC(=O)COCCCOCCCCCOc2ccc3c(c2)c2c(C(N)=O)cc(-c4c(C)noc4C)cc2n3Cc2ccccc2)C(C)(C)C)cc1 [Example 143, 9-benzyl-2-(dimethyl-1,2-oxazol-4-yl)-6-({5-[3-({[(2S)-1-[(2S,4R)-4-hydroxy-2-({[4-(4-methyl-1,3-thiazol-5-yl)phenyl]methyl}carbamoyl)pyrrolidin-1-yl]-3,3-dimethyl-1-oxobutan-2-yl]carbamoyl}methoxy)propoxy]pentyl}oxy)-9H-carbazole-4-carboxamide] | 100% |
| < 0.01 µM | Cc1ncsc1-c1ccc([C@H](C)NC(=O)[C@@H]2C[C@@H](O)CN2C(=O)[C@@H](NC(=O)COCCOCCCNC(=O)C[C@@H]2N=C(c3ccc(Cl)cc3)c3c(sc(C)c3C)-n3c(C)nnc32)C(C)(C)C)cc1 [Example 147] | 98.5% |
| < 0.01 µM | Cc1ncsc1-c1ccc([C@H](C)NC(=O)[C@@H]2C[C@@H](O)CN2C(=O)[C@@H](NC(=O)COCCCOCCN(C)C(=O)C[C@@H]2N=C(c3ccc(Cl)cc3)c3c(sc(C)c3C)-n3c(C)nnc32)C(C)(C)C)cc1 [Example 148] | 100% |
| 0.1 to 1 µM | CC(=O)N[C@H](C(=O)N1C[C@H](O)C[C@H]1C(=O)NCc1ccc(-c2scnc2C)cc1OCCOCCOc1ccc(C2=NC(CC(=O)Nc3ccccc3)c3nnc(C)n3-c3sc(C)c(C)c32)cc1)C(C)(C)C (stereo partly drawn) [Example 149] | 57.3% |
| < 0.01 µM | Cc1ncsc1-c1ccc([C@H](C)NC(=O)[C@@H]2C[C@@H](O)CN2C(=O)[C@@H](NC(=O)CCc2cc(F)cc(OCCNC(=O)C[C@@H]3N=C(c4ccc(Cl)cc4)c4c(sc(C)c4C)-n4c(C)nnc43)c2)C(C)(C)C)cc1 [Example 150, (2S,4R)-1-[(2S)-2-{3-[3-(2-{2-[(9S)-7-(4-chlorophenyl)-4,5,13-trimethyl-3-thia-1,8,11,12-tetraazatricyclo[8.3.0.0^2,^6]trideca-2(6),4,7,10,12-pentaen-9-yl]acetamido}ethoxy)-5-fluorophenyl]propanamido}-3,3-dimethylbutanoyl]-4-hydroxy-N-[(1S)-1-[4-(4-methyl-1,3-thiazol-5-yl)phenyl]ethyl]pyrrolidine-2-carboxamide] | 93.9% |
| 0.01 to 0.1 µM | Cc1ncsc1-c1ccc(CNC(=O)[C@@H]2C[C@@H](O)CN2C(=O)[C@@H](NC(=O)COCCOCCOCCCCOc2ccc3c(c2)c2c(C(N)=O)cc(-c4c(C)noc4C)cc2n3Cc2ccccc2)C(C)(C)C)cc1 [Example 152] | 95% |

More lines, now with the values behind:

| SMILES | DC50 | Emax |
| --- | --- | --- |
| Cc1ncsc1-c1ccc([C@H](C)NC(=O)[C@@H]2C[C@@H](O)CN2C(=O)[C@@H](NC(=O)COc2ccc(O[C@@H](C)CNC(=O)C[C@@H]3N=C(c4ccc(Cl)cc4)c4c(sc(C)c4C)-n4c(C)nnc43)cc2)C(C)(C)C)cc1 [Example 135, (2S,4R)-1-[(2S)-2-{2-[(6-{[(2S)-1-{2-[(9S)-7-(4-chlorophenyl)-4,5,13-trimethyl-3-thia-1,8,11,12-tetraazatricyclo[8.3.0.0^2,^6]trideca-2(6),4,7,10,12-pentaen-9-yl]acetamido}propan-2-yl]oxy}pyridin-3-yl)oxy]acetamido}-3,3-dimethylbutanoyl]-4-hydroxy-N-[(1S)-1-[4-(4-methyl-1,3-thiazol-5-yl)phenyl]ethyl]pyrrolidine-2-carboxamide] | < 0.01 µM | 99% |
| Cc1ncsc1-c1ccc([C@H](C)NC(=O)[C@@H]2C[C@@H](O)CN2C(=O)[C@@H](NC(=O)COc2ccc(O[C@H]3C[C@H](NC(=O)C[C@@H]4N=C(c5ccc(Cl)cc5)c5c(sc(C)c5C)-n5c(C)nnc54)C3)nc2)C(C)(C)C)cc1 [Example 141, (2S,4R)-1-[(2S)-3,3-dimethyl-2-[2-({6-[(1,3trans)-3-{2-[(9S)-7-(4-chlorophenyl)-4,5,13-trimethyl-3-thia-1,8,11,12-tetraazatricyclo[8.3.0.0^2,^6]trideca-2(6),4,7,10,12-pentaen-9-yl]acetamido}cyclobutoxy]pyridin-3-yl}oxy)acetamido]butanoyl]-4-hydroxy-N-[(1S)-1-[4-(4-methyl-1,3-thiazol-5-yl)phenyl]ethyl]pyrrolidine-2-carboxamide] | < 0.01 µM | 98% |
| Cc1ncsc1-c1ccc([C@H](C)NC(=O)[C@@H]2C[C@@H](O)CN2C(=O)[C@@H](NC(=O)CCc2cc(OCCNC(=O)C[C@@H]3N=C(c4ccc(Cl)cc4)c4c(sc(C)c4C)-n4c(C)nnc43)ccc2F)C(C)(C)C)cc1 [Example 142, (2S,4R)-1-[(2S)-2-{3-[5-(2-{2-[(9S)-7-(4-chlorophenyl)-4,5,13-trimethyl-3-thia-1,8,11,12-tetraazatricyclo[8.3.0.0^2,^6]trideca-2(6),4,7,10,12-pentaen-9-yl]acetamido}ethoxy)-2-fluorophenyl]propanamido}-3,3-dimethylbutanoyl]-4-hydroxy-N-[(1S)-1-[4-(4-methyl-1,3-thiazol-5-yl)phenyl]ethyl]pyrrolidine-2-carboxamide] | < 0.01 µM | 98% |
| Cc1ncsc1-c1ccc(CNC(=O)[C@@H]2C[C@@H](O)CN2C(=O)[C@@H](c2cnn(CCCOCCNC(=O)C[C@@H]3N=C(c4ccc(Cl)cc4)c4c(sc(C)c4C)-n4c(C)nnc43)c2)C(C)C)cc1 [Example 144] | 0.1 to 1 µM | 73% |
| Cc1ncsc1-c1ccc(CNC(=O)[C@@H]2C[C@@H](O)CN2C(=O)[C@H](c2cnn(CCCOCCNC(=O)C[C@@H]3N=C(c4ccc(Cl)cc4)c4c(sc(C)c4C)-n4c(C)nnc43)c2)C(C)C)cc1 [Example 145] | > 1 µM | 15.9% |
| Cc1ncsc1-c1ccc([C@H](C)NC(=O)[C@@H]2C[C@@H](O)CN2C(=O)[C@@H](NC(=O)COC/C=C\COCCNC(=O)C[C@@H]2N=C(c3ccc(Cl)cc3)c3c(sc(C)c3C)-n3c(C)nnc32)C(C)(C)C)cc1 [Example 146, (2S,4R)-1-[(2S)-2-(2-{[(2Z)-4-(2-{2-[(9S)-7-(4-chlorophenyl)-4,5,13-trimethyl-3-thia-1,8,11,12-tetraazatricyclo[8.3.0.0^2,^6]trideca-2(6),4,7,10,12-pentaen-9-yl]acetamido}ethoxy)but-2-en-1-yl]oxy}acetamido)-3,3-dimethylbutanoyl]-4-hydroxy-N-[(1S)-1-[4-(4-methyl-1,3-thiazol-5-yl)phenyl]ethyl]pyrrolidine-2-carboxamide] | < 0.01 µM | 100% |
| Cc1ncsc1-c1ccc([C@H](C)NC(=O)[C@@H]2C[C@@H](O)CN2C(=O)[C@@H](NC(=O)CCc2cc(OC(C)CNC(=O)C[C@@H]3N=C(c4ccc(Cl)cc4)c4c(sc(C)c4C)-n4c(C)nnc43)ccc2F)C(C)(C)C)cc1 (stereo partly drawn) [Example 151] | < 0.01 µM | 96% |
| Cc1ncsc1-c1ccc([C@H](C)NC(=O)[C@@H]2C[C@@H](O)CN2C(=O)[C@@H](NC(=O)[C@H](C)OCCCOCCNC(=O)C[C@@H]2N=C(c3ccc(Cl)cc3)c3c(sc(C)c3C)-n3c(C)nnc32)C(C)(C)C)cc1 [Example 153] | < 0.01 µM | 92% |
| Cc1ncsc1-c1ccc([C@H](C)NC(=O)[C@@H]2C[C@@H](O)CN2C(=O)[C@@H](NC(=O)[C@@H](C)OCCCOCCNC(=O)C[C@@H]2N=C(c3ccc(Cl)cc3)c3c(sc(C)c3C)-n3c(C)nnc32)C(C)(C)C)cc1 [Example 154] | < 0.01 µM | 94.5% |
